Results: the kinase profiling compilation of Christmann-Franck et al. (2016)

How the values were obtained:
Assay in all cases: KINOMEscan competition binding
Conditions in all cases: compound 10.0 µM
[1] = target: ACVR1 (human) (UniProt Q04771)
[2] = target: AURKC (human) (UniProt Q9UQB9)
[3] = target: IGF1R (human) (UniProt P08069)
[4] = target: YES1 (human) (UniProt P07947)
[5] = target: CAMK1G (human) (UniProt Q96NX5)
[6] = target: MKNK2 (human) (UniProt Q9HBH9)
[7] = target: RIOK2 (human) (UniProt Q9BVS4)
[8] = target: FGFR2 (human) (UniProt P21802)
[9] = target: NTRK1 (human) (UniProt P04629)
[10] = target: PIM3 (human) (UniProt Q86V86)
[11] = target: TXK (human) (UniProt P42681)
[12] = target: MAP4K4 (human) (UniProt O95819)
[13] = target: MAPK13 (human) (UniProt O15264)
[14] = target: EPHB1 (human) (UniProt P54762)
[15] = target: WEE2 (human) (UniProt P0C1S8)
[16] = target: TAOK1 (human) (UniProt Q7L7X3)
[17] = target: TSSK1B (human) (UniProt Q9BXA7)
[18] = target: EPHA5 (human) (UniProt P54756)
[19] = target: MLTK (human) (UniProt Q9NYL2)
[20] = target: NEK6 (human) (UniProt Q9HC98)
[21] = target: CHEK2 (human) (UniProt O96017)
[22] = target: RPS6KA6 KD1 (human) (UniProt Q9UK32)
[23] = target: RIPK4 (human) (UniProt P57078)
[24] = target: PIK3C2B (human) (UniProt O00750)
[25] = target: MARK3 (human) (UniProt P27448)
[26] = target: NEK9 (human) (UniProt Q8TD19)
[27] = target: MAPK9 (human) (UniProt P45984)
[28] = target: AKT1 (human) (UniProt P31749)
[29] = target: KDR (human) (UniProt P35968)
[30] = system: KIT (human), P10721 [V559D]
[31] = target: ACVR2A (human) (UniProt P27037)
[32] = target: PIK3CB (human) (UniProt P42338)
[33] = target: CDC42BPG (human) (UniProt Q6DT37)
[34] = target: MAPK10 (human) (UniProt P53779)
[35] = target: NTRK2 (human) (UniProt Q16620)
[36] = target: ALK (human) (UniProt Q9UM73)
[37] = target: GSK3A (human) (UniProt P49840)
[38] = target: PTK6 (human) (UniProt Q13882)
[39] = target: SRPK3 (human) (UniProt Q9UPE1)
[40] = target: DYRK1B (human) (UniProt Q9Y463)

Sequence of TAOK1 (human) (Q7L7X3 whole entry, looked up): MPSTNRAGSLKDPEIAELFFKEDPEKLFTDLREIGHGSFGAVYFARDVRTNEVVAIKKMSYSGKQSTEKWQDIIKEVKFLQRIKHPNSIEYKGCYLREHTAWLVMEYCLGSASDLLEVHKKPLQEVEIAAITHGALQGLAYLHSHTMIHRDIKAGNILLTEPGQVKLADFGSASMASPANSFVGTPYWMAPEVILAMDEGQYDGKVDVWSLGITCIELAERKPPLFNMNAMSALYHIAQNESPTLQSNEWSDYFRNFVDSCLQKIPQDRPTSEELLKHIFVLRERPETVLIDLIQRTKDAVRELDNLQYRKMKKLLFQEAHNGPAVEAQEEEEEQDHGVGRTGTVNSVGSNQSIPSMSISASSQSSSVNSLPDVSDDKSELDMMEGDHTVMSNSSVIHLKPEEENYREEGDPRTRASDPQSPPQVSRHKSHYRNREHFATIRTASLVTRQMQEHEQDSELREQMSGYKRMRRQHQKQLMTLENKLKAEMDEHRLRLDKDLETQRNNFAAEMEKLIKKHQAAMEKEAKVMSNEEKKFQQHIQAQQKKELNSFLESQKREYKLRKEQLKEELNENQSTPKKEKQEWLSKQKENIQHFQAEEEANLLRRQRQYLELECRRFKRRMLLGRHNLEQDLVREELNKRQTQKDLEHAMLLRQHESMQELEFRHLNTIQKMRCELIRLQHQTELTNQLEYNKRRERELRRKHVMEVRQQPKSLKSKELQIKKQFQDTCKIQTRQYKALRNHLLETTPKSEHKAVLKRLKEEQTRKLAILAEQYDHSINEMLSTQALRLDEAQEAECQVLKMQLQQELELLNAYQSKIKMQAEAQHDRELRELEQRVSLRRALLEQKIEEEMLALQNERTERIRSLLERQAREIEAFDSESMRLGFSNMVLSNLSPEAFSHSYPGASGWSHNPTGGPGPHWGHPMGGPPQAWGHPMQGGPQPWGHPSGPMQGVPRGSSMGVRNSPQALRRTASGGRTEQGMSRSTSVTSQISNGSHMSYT
Sequence of MAPK9 (human) (P45984 whole entry, looked up): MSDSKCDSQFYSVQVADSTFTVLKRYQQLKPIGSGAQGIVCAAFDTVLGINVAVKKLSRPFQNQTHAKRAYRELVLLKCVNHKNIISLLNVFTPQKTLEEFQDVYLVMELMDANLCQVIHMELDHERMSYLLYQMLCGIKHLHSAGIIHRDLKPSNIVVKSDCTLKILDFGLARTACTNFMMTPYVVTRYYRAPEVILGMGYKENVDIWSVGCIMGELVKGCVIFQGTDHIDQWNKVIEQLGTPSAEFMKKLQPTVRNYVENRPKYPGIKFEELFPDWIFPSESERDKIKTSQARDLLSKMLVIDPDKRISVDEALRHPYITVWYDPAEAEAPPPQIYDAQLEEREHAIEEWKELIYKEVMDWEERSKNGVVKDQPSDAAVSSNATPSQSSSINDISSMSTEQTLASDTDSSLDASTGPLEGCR
Sequence of TXK (human) (P42681 whole entry, looked up): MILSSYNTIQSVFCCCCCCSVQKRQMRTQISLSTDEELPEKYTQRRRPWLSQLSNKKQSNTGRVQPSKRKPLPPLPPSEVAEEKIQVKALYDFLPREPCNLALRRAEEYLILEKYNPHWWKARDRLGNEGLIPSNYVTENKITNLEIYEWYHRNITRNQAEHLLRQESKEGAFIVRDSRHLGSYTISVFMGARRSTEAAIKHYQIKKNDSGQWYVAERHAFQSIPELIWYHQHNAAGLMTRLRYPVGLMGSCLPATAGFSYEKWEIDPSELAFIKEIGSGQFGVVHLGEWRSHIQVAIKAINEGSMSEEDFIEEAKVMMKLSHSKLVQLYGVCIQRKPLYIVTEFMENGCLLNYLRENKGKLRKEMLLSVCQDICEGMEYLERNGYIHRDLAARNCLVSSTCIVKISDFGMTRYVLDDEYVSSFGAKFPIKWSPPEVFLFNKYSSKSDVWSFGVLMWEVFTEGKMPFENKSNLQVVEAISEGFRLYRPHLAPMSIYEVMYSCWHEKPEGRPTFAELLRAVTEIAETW
Sequence of CDC42BPG (human) (Q6DT37 whole entry, looked up): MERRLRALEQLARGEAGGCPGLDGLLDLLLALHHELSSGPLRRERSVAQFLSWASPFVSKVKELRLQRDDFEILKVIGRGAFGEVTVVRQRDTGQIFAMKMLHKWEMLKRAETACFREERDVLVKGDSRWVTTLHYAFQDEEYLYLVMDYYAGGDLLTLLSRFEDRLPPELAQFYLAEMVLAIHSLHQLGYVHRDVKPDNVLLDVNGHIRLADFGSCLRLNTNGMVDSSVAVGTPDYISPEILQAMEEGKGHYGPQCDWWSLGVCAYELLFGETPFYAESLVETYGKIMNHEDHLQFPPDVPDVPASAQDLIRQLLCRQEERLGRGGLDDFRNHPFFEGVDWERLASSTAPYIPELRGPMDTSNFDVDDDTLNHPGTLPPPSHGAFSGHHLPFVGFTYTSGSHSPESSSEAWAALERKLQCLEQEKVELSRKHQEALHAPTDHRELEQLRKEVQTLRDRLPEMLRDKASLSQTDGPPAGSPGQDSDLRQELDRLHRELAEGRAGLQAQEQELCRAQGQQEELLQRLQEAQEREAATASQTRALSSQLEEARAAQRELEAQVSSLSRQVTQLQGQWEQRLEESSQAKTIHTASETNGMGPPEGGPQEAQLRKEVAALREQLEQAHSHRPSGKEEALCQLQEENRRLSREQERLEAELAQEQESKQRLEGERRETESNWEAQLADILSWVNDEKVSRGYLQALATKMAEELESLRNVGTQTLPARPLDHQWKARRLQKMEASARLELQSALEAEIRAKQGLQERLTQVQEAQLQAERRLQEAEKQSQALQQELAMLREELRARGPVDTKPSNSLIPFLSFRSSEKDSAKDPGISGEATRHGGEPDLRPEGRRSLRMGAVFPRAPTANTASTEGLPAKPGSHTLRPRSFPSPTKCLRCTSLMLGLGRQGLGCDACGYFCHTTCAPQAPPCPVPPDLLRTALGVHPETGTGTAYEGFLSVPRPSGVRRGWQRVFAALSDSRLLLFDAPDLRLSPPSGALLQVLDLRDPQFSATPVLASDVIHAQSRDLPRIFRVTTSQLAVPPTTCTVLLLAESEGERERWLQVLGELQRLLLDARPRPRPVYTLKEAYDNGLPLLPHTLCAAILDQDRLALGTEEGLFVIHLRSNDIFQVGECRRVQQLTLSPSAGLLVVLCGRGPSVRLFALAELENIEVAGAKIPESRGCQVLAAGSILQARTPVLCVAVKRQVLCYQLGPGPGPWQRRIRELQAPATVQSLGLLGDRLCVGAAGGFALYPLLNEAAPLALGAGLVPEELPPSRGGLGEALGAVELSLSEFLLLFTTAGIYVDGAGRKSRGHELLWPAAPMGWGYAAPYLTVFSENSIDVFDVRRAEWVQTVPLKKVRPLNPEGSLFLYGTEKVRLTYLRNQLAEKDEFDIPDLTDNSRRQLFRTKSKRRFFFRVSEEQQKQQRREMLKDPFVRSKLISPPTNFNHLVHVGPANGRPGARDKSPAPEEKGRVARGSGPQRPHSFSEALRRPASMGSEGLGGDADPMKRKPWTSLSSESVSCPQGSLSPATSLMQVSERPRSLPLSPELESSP
Sequence of PTK6 (human) (Q13882 whole entry, looked up): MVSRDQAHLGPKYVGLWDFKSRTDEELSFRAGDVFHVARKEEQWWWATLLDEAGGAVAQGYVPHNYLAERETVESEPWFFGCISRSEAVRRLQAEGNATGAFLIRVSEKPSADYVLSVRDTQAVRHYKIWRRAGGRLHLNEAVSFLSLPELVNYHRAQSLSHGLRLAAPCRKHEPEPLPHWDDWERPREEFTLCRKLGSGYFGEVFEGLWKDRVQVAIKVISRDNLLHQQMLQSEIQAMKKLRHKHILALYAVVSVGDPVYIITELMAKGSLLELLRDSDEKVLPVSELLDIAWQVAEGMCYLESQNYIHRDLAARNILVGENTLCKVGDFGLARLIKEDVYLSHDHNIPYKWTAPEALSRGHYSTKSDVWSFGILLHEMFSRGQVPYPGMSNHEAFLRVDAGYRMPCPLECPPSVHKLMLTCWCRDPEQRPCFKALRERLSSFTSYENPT
Sequence of SRPK3 (human) (Q9UPE1 whole entry, looked up): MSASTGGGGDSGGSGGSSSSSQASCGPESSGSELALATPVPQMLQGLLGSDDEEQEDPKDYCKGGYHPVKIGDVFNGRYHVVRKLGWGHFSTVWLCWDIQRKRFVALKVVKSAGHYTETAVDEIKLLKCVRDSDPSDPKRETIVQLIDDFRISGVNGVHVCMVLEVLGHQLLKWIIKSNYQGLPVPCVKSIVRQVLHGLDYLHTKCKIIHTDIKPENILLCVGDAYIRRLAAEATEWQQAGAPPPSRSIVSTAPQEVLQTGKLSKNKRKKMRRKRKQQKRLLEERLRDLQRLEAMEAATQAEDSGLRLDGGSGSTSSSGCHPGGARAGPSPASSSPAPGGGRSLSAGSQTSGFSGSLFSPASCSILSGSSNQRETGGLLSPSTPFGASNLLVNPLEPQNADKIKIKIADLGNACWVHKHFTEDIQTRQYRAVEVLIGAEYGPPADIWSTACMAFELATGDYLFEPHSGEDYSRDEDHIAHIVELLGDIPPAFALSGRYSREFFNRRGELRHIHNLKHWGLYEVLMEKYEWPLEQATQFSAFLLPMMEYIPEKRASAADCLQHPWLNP
Sequence of MAPK13 (human) (O15264 whole entry, looked up): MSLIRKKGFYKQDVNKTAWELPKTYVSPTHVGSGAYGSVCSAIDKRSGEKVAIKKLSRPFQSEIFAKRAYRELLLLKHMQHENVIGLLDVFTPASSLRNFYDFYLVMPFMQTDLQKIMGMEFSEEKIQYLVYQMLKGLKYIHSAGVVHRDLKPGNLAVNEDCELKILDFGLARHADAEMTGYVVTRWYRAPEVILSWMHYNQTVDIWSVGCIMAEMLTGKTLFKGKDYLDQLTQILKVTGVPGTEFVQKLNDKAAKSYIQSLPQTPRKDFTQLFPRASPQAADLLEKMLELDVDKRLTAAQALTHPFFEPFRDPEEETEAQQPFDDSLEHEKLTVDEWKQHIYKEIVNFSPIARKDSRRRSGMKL

SMILES	kinase still bound, per cent of control [1] [%]	kinase still bound, per cent of control [2] [%]	kinase still bound, per cent of control [3] [%]	kinase still bound, per cent of control [4] [%]	kinase still bound, per cent of control [5] [%]	kinase still bound, per cent of control [6] [%]	kinase still bound, per cent of control [7] [%]	kinase still bound, per cent of control [8] [%]	kinase still bound, per cent of control [9] [%]	kinase still bound, per cent of control [10] [%]	kinase still bound, per cent of control [11] [%]	kinase still bound, per cent of control [12] [%]	kinase still bound, per cent of control [13] [%]	kinase still bound, per cent of control [14] [%]	kinase still bound, per cent of control [15] [%]	kinase still bound, per cent of control [16] [%]	kinase still bound, per cent of control [17] [%]	kinase still bound, per cent of control [18] [%]	kinase still bound, per cent of control [19] [%]	kinase still bound, per cent of control [20] [%]	further results
COc1cc(C(=O)NC2CCN(C)CC2)ccc1Nc1ncc2c(n1)N(C1CCCC1)CCC(=O)N2C(C)C	100	100	100	100	100	100	100	100	100	100	100	100	100	100	100	100	100	100	100	100	kinase still bound, per cent of control [21]: 100%; kinase still bound, per cent of control [22]: 100%; kinase still bound, per cent of control [23]: 100%; kinase still bound, per cent of control [24]: 100%; kinase still bound, per cent of control [25]: 100%; kinase still bound, per cent of control [26]: 100%; kinase still bound, per cent of control [27]: 100%; kinase still bound, per cent of control [28]: 100%; kinase still bound, per cent of control [29]: 100%; kinase still bound, per cent of control [30]: 100%; kinase still bound, per cent of control [31]: 100%; kinase still bound, per cent of control [32]: 100%; kinase still bound, per cent of control [33]: 100%; kinase still bound, per cent of control [34]: 100%; kinase still bound, per cent of control [35]: 100%; kinase still bound, per cent of control [36]: 100%; kinase still bound, per cent of control [37]: 100%; kinase still bound, per cent of control [38]: 100%; kinase still bound, per cent of control [39]: 100%; kinase still bound, per cent of control [40]: 100%
C=CC(=O)Nc1cc(NC(=O)c2ccc(C)c(NC(=O)c3ccno3)c2)cc(C(F)(F)F)c1	84	100	63	46	91	100	92	99	87	100	93	88	90	79	84	76	93	80	6	100	kinase still bound, per cent of control [21]: 96%; kinase still bound, per cent of control [22]: 86%; kinase still bound, per cent of control [23]: 86%; kinase still bound, per cent of control [24]: 100%; kinase still bound, per cent of control [25]: 67%; kinase still bound, per cent of control [26]: 100%; kinase still bound, per cent of control [27]: 94%; kinase still bound, per cent of control [28]: 58%; kinase still bound, per cent of control [29]: 87%; kinase still bound, per cent of control [30]: 1.4%; kinase still bound, per cent of control [31]: 100%; kinase still bound, per cent of control [32]: 100%; kinase still bound, per cent of control [33]: 100%; kinase still bound, per cent of control [34]: 86%; kinase still bound, per cent of control [35]: 84%; kinase still bound, per cent of control [36]: 95%; kinase still bound, per cent of control [37]: 100%; kinase still bound, per cent of control [38]: 100%; kinase still bound, per cent of control [39]: 100%; kinase still bound, per cent of control [40]: 95%
